Activity calls are given as the source filed them. The rule behind the calls is not given here.
Legend:
[1] = system: BV-2; assay: Anti-neuroinflammatory activity in mouse BV-2 cells assessed as inhibition of LPS-induced NO production incubated for 24 hrs by microplate reader analysis; assay type: functional, cell-based; settings: BV-2, 24 h
[2] = Cytotoxicity against mouse BV-2 cells assessed as reduction in cell viability by crystal violet staining based assay; assay type: toxicity
[3] = Therapeutic index, ratio of IC50 for cytotoxicty against mouse BV-2 cells assessed as reduction in cell viability by crystal violet staining based assay to IC50 for nti-neuroinflammatory activity in mouse BV-2 cells assessed as inhibition of LPS-induced NO production; assay type: toxicity; settings: read-out: Ratio IC50
[4] = system: BV-2; assay: Anti-neuroinflammatory activity in LPS-induced mouse BV-2 cells assessed as reduction in […] mRNA expression by qRT-PCR analysis; assay type: functional, cell-based; settings: dose 1-10 µM
[5] = system: BV-2; assay: Anti-neuroinflammatory activity in LPS-induced mouse BV-2 cells assessed as reduction in TNF-alpha mRNA expression by qRT-PCR analysis; assay type: functional, cell-based; settings: dose 1-10 µM
[6] = system: BV-2; assay: Anti-neuroinflammatory activity in LPS-induced mouse BV-2 cells assessed as reduction in IL-6 mRNA expression by qRT-PCR analysis; assay type: functional, cell-based; settings: dose 1-10 µM
[7] = system: BV-2; assay: Anti-neuroinflammatory activity in LPS-induced mouse BV-2 cells assessed as formation of amoeboid-shaped cells at 10 uM incubated for 24 hrs by inverted microscopic analysis; assay type: functional, cell-based
[8] = system: BV-2; assay: Anti-neuroinflammatory activity in LPS-induced mouse BV-2 cells assessed as reduction in iNOS mRNA expression at 10 uM incubated for 24 hrs by qRT-PCR analysis; assay type: functional, cell-based
[9] = system: BV-2; assay: Anti-neuroinflammatory activity in LPS-induced mouse BV-2 cells assessed as reduction in IL-1beta mRNA expression at 10 uM incubated for 24 hrs by qRT-PCR analysis; assay type: functional, cell-based
[10] = system: BV-2; assay: Anti-neuroinflammatory activity in LPS-induced mouse BV-2 cells assessed as reduction in […] mRNA expression at 10 uM incubated for 24 hrs by qRT-PCR analysis; assay type: functional, cell-based
[11] = system: Mus musculus; assay: Anti-neuroinflammatory activity in naloxone precipitated morphine-induced ip dosed BALB/c mouse assessed as reduction in naloxone precipitated withdrawal jumps administered with morphine 3 times daily for 3 days and on day 4 for 3 hrs prior to compound addition for 30 mins before naloxone addition and measured after 15 mins; assay type: functional, organism-based; settings: dose 0.2-20 µg/kg, time 45.0 min
[12] = system: Mus musculus; assay: Anti-neuroinflammatory activity in morphine-induced BALB/c mouse assessed as inhibition of behavioral sensitization at 0.2 mg/kg, ip administered once daily for 7 days; assay type: functional, organism-based; settings: time 7.0 day
[13] = system: Mus musculus; assay: Anti-neuroinflammatory activity in morphine-induced BALB/c mouse assessed as […] in locomotor activity 0.2 mg/kg, ip administered once daily for 7 days and measured after 60 mins; assay type: functional, organism-based; settings: time 169.0 hrs
[14] = system: Mus musculus; assay: Anti-neuroinflammatory activity in morphine-induced BALB/c mouse assessed as decrease in conditioned place preference behavior 0.2 mg/kg, ip pretreated for 6 days followed by morphine induction and measured on days 5 to 9 days; assay type: functional, organism-based; settings: time 11-15 day
[15] = system: Mus musculus; assay: Anti-neuroinflammatory activity in morphine-induced BALB/c mouse assessed as inhibition of IL-1beta expression in mPFC region 0.2 mg/kg, ip; assay type: functional, organism-based
[16] = system: Mus musculus; assay: Anti-neuroinflammatory activity in morphine-induced BALB/c mouse assessed as inhibition of IL-1beta expression in NAc region 0.2 mg/kg, ip; assay type: functional, organism-based
[17] = system: Mus musculus; assay: Anti-neuroinflammatory activity in morphine-induced BALB/c mouse assessed as inhibition of IL-1beta expression in VTA region 0.2 mg/kg, ip; assay type: functional, organism-based
[18] = system: Mus musculus; assay: Anti-neuroinflammatory activity in morphine-induced BALB/c mouse assessed as inhibition of Iba1 expression in mPFC region 0.2 mg/kg, ip; assay type: functional, organism-based
[19] = Tmax in BALB/c mouse plasma at 10 mg/kg, po measured upto 4 hrs by mS-HPLC analysis; assay type: ADME, organism-based
[20] = Tmax in BALB/c mouse brain at 10 mg/kg, po measured upto 4 hrs by mS-HPLC analysis; assay type: ADME, organism-based
[21] = Cmax in BALB/c mouse at 10 mg/kg, po measured upto 4 hrs by mS-HPLC analysis; assay type: ADME, organism-based; parameters: time < 4 hrs, dose 10 mg/kg, route po; settings: in vivo
[22] = Half life in BALB/c mouse at 10 mg/kg, po measured upto 4 hrs by mS-HPLC analysis; assay type: ADME, organism-based; settings: in vivo
[23] = MRT in BALB/c mouse at 10 mg/kg, po measured upto 4 hrs by mS-HPLC analysis; assay type: ADME, organism-based; settings: in vivo
[24] = Ratio of drug concentration in blood to plasma in BALB/c mouse at 10 mg/kg, po measured at 3 hrs; assay type: ADME, organism-based; settings: in vivo
[25] = AUC (0 to t) in BALB/c mouse at 10 mg/kg, po measured upto 4 hrs by mS-HPLC analysis; assay type: ADME, organism-based; settings: in vivo
[26] = Toxicity in BALB/c mouse assessed as effect on respiratory rate at 20 mg/kg, ip measured on day 2 and 5; assay type: organism-based; settings: in vivo, 120 h, time 5 day
[27] = Toxicity in BALB/c mouse assessed as cognitive impairment by measuring time spent on new arm at 20 mg/kg, ip administered once daily for 3 days and measured after 45 mins by Y maze test; assay type: organism-based; settings: in vivo, 72.75 h, time 4365 min
[28] = Toxicity in BALB/c mouse assessed as rewarding effect at 20 mg/kg, ip measured after 6 days by CPP analysis; assay type: organism-based; settings: in vivo, 144 h, time 6 day
[29] = Toxicity in BALB/c mouse assessed as effect on locomotor activity at 20 mg/kg, ip measured administered once daily for 7 days and measured after 24 hrs by open field test; assay type: organism-based; settings: in vivo, 192 h
[30] = Toxicity in BALB/c mouse assessed as effect on grooming behavior at 20 mg/kg, ip measured administered once daily for 7 days and measured after 24 hrs by open field test; assay type: organism-based; settings: in vivo, 192 h
[31] = Toxicity in BALB/c mouse assessed as effect on rubbing behavior at 20 mg/kg, ip measured administered once daily for 7 days and measured after 24 hrs by open field test; assay type: organism-based; settings: in vivo, 192 h
[32] = Toxicity in BALB/c mouse assessed as assessed as effect on body weight at 20 mg/kg, ip measured administered once daily for 7 days and; assay type: organism-based; settings: in vivo, 168 h, time 7 day
[33] = target: Pyruvate kinase PKM (Mus musculus) (UniProt P52480); assay: Competitive inhibition of CIAC001-P1 probe binding to PKM2 in mouse BV-2 cells at 20 uM pretreated for 2 hrs followed by UV light treatment and measured after 30 mins by silver staining based Streptavidin-pull down assay; assay type: cell-based; settings: time 2.5 hrs
[34] = target: Pyruvate kinase PKM (Mus musculus) (UniProt P52480); assay: Competitive inhibition of CIAC001-P2 probe binding to PKM2 in mouse BV-2 cells at 20 uM pretreated for 2 hrs followed by UV light treatment and measured after 30 mins by silver staining based Streptavidin-pull down assay; assay type: cell-based; settings: time 2.5 hrs
[35] = target: Pyruvate kinase PKM (Mus musculus) (UniProt P52480); assay: Binding affinity to PKM2 in mouse BV-2 cells at 20 uM by Western blot analysis; assay type: cell-based
[36] = target: Pyruvate kinase PKM (Mus musculus) (UniProt P52480); assay: Binding affinity to PKM1 in mouse BV-2 cells at 20 uM by Western blot analysis; assay type: cell-based
[37] = target: Pyruvate kinase PKM (Mus musculus) (UniProt P52480); assay: Binding affinity to PKM2 in mouse BV-2 cells assessed as thermal stabilization by measuring change in melting temperature incubated for 2 hrs by Western blot analysis; assay type: cell-based
[38] = target: Pyruvate kinase PKM (Mus musculus, UniProt P52480); assay: Binding affinity to PKM2 in mouse BV-2 cells by Western blot analysis; assay type: cell-based
[39] = target: Pyruvate kinase PKM (Mus musculus) (UniProt P52480); assay: Activation of PKM2 in mouse BV-2 cells assessed as increase in ATP level at 10 uM measured for 6 hrs; assay type: cell-based; settings: filed as activator
[40] = system: BV-2; assay: Inhibition of LPS-induced PKM2 tetramer in mouse BV-2 cells at 10 uM; assay type: functional, cell-based
[41] = system: BV-2; assay: Inhibition of LPS-induced PKM2 monomer in mouse BV-2 cells at 10 uM; assay type: functional, cell-based
[42] = system: BV-2; assay: Inhibition of LPS-induced nuclear translocation in mouse BV-2 cells incubated for 6 hrs by Western blot analysis; assay type: functional, cell-based
[43] = system: BV-2; assay: Inhibition of LPS-induced LDHA mRNA overexpression in mouse BV-2 cells at 10 uM incubated for 6 hrs; assay type: functional, cell-based
[44] = system: BV-2; assay: Inhibition of LPS-induced LDH release in mouse BV-2 cells at 10 uM incubated for 6 hrs; assay type: functional, cell-based
[45] = system: Mus musculus; assay: Inhibition of morphine-induced Hif-1alpha overexpression in BALB/c mouse at 0.2 mg/kg, ip measured for 7 days; assay type: functional, organism-based; settings: time 7.0 day
[46] = target: Cannabinoid receptor (Homo sapiens) (UniProt P34972+P21554); assay: Agonist activity at CB1/CB2 (unknown origin) receptor expressed in HEK293 cells assessed as inhibition of forskolin-stimulated cAMP accumulation incubated for 2 hrs by microplate reader analysis; assay type: functional, cell-based; settings: filed as agonist
Sequence of Cannabinoid receptor (Homo sapiens) (P21554 whole entry, looked up): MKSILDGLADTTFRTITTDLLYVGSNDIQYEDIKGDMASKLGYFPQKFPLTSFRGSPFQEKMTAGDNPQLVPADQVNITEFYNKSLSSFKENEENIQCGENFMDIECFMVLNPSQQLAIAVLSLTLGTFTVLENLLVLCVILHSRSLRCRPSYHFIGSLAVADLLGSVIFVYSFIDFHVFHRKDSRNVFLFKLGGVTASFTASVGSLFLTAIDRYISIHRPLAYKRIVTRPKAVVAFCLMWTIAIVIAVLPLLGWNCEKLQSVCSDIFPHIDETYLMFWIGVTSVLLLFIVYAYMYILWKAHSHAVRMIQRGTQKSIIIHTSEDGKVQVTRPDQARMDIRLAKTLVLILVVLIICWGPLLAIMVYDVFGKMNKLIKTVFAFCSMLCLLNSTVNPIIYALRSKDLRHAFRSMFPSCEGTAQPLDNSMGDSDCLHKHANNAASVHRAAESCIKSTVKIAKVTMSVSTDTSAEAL
Sequence of Cannabinoid receptor (Homo sapiens) (P34972 whole entry, looked up): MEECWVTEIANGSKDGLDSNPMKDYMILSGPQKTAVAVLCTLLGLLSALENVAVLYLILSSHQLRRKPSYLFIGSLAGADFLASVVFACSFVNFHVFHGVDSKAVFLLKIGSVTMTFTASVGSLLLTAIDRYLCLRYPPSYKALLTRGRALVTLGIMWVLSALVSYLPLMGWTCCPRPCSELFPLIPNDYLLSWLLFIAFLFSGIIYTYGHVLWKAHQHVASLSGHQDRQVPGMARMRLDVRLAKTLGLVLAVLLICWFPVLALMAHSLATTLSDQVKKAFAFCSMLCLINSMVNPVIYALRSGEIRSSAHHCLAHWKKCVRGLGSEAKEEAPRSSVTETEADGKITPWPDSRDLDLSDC

Sequence of Pyruvate kinase PKM (Mus musculus) (P52480 whole entry): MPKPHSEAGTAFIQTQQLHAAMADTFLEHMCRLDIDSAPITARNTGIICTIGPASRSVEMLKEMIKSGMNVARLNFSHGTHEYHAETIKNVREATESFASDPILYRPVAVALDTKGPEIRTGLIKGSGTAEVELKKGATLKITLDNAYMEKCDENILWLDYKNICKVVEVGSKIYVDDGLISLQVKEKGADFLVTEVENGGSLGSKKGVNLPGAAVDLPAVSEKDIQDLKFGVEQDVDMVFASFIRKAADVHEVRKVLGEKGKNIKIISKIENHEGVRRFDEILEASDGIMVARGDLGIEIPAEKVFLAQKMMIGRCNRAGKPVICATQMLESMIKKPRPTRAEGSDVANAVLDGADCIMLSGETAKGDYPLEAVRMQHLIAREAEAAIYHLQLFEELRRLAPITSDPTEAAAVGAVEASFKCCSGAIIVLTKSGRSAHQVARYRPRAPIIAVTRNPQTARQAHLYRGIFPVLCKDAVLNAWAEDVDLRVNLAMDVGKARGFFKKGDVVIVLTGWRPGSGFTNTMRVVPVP
Sequence of Pyruvate kinase PKM (P52480 whole entry): as above

## C=C(C)[C@@H]1CCC(C)=C[C@H]1c1c(O)cc(C(C)n2nccn2)cc1O (some centres not stated)
[1]
  IC50: 2.5 µM
[2]
  IC50: 57.8 µM
[3]
  selectivity ratio: 23.1
[4]
  Activity: Dose-Dependent Effect
[5]
  Activity: Dose-Dependent Effect
[6]
  Activity: Dose-Dependent Effect
[7]
  Activity: Active
[8]
  Activity: Active
[9]
  Activity: Active
[10]
  Activity: Active
[11]
  Activity: Dose-Dependent Effect
[12]
  Activity: Active
[13]
  Activity: Active
[14]
  Activity: Active
[15]
  Activity: Active
[16]
  Activity: Active
[17]
  Activity: Active
[18]
  Activity: Active
[19]
  Tmax: 18 min
[20]
  Tmax: 30 min
[21]
  Cmax: 175 ng/g
[22]
  half-life: 48 min
[23]
  MRT: 54 min
[24]
  Ratio: < 200%
[25]
  AUCt: 172.8 ng·h/g
[26]
  Activity: Non-Toxic
[27]
  Activity: Non-Toxic
[28]
  Activity: Non-Toxic
[29]
  Activity: Non-Toxic
[30]
  Activity: Non-Toxic
[31]
  Activity: Non-Toxic
[32]
  Activity: Non-Toxic
[33]
  inhibition: Active
[34]
  inhibition: Active
[35]
  Activity: Active
[36]
  Activity: Active
[37]
  ΔTm: 3.9 °C
[38]
  Kd: 2.2 µM
[39]
  Activity: Active
[40]
  inhibition: Active
[41]
  inhibition: Active
[42]
  inhibition: Active
[43]
  inhibition: Active
[44]
  inhibition: Active
[45]
  inhibition: Active
[46]
  Activity: Active

## C=CCOc1cc(CCCCC)cc(OCC=C)c1[C@@H]1C=C(C)CC[C@H]1C(=C)C
[2]
  IC50: > 200 µM

## C=C(C)[C@@H]1CCC(C)=C[C@H]1c1c(O)cc(CCCCCC)cc1O
[1]
  IC50: 2.1 µM
[2]
  IC50: 19 µM
[3]
  selectivity ratio: 9

## C=C(C)[C@@H]1CCC(C)=C[C@H]1c1c(O)cc(CCCCC)cc1OCCC
[2]
  IC50: > 200 µM

## C=C(C)[C@@H]1CCC(C)=C[C@H]1c1c(O)cc(C(C)n2cccc2)cc1O (some centres not stated)
[1]
  IC50: 23.9 µM
[2]
  IC50: 155 µM
[3]
  selectivity ratio: 6.5

## C=C(C)[C@@H]1CCC(C)=C[C@H]1c1c(O)cc(CCCC)cc1O
[1]
  IC50: 5 µM
[2]
  IC50: 11.1 µM
[3]
  selectivity ratio: 2.2

## C#CCOc1cc(CCCCC)cc(OCC#C)c1[C@@H]1C=C(C)CC[C@H]1C(=C)C
[1]
  IC50: 200 µM
[2]
  IC50: > 200 µM

## C#CCOc1cc(CCCCC)cc(O)c1[C@@H]1C=C(C)CC[C@H]1C(=C)C
[1]
  IC50: 99.6 µM
[2]
  IC50: 65 µM
[3]
  selectivity ratio: 1.2

## C=C(C)[C@@H]1CCC(C)=C[C@H]1c1c(O)cc(CCCCCCC)cc1O
[1]
  IC50: 42 µM
[2]
  IC50: 14.1 µM
[3]
  selectivity ratio: 0.3

## C=C(C)[C@@H]1CCC(C)=C[C@H]1c1c(O)cc(C(C)n2ccnc2)cc1O (some centres not stated)
[1]
  IC50: 4.4 µM
[2]
  IC50: 32.6 µM
[3]
  selectivity ratio: 7.4

## C=C(C)[C@@H]1CCC(C)=C[C@H]1c1c(O)cc(CCCCCCCC)cc1O
[2]
  IC50: 26.2 µM
[3]
  selectivity ratio: 0.2

## C=C(C)[C@@H]1CCC(C)=C[C@H]1c1c(OC)cc(CCCCC)cc1OC
[1]
  IC50: > 20 µM
[2]
  IC50: > 200 µM

From ChEMBL document CHEMBL5360639, “Cannabidiol Analogue CIAC001 for the Treatment of Morphine-Induced Addiction by Targeting PKM2” (J Med Chem, 2023)
